Experimental data taken from US20100120850A1, “Quinoline Derivatives, Pharmaceutical Compositions Comprising Them, and Their Use in Treating Central Nervous System and Peripheral Diseases” (priority 2007, published 2010).

Target: T1, NK-3 receptor (Homo sapiens, UniProt P29371)
T1 construct: expressed in transfected cells
T1 sequence (P29371 1-465): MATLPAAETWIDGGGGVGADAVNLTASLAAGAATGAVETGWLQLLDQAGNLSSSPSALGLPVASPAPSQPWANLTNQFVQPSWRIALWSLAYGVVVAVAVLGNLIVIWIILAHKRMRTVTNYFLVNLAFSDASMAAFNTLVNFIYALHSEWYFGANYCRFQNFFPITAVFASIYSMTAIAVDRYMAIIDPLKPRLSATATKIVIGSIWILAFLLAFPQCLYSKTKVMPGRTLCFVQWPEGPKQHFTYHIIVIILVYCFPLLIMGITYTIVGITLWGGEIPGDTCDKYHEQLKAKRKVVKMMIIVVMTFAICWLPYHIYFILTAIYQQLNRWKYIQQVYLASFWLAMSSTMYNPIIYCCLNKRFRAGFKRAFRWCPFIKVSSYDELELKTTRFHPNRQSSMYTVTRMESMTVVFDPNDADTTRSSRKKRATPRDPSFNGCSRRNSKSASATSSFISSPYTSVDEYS
Experiment: Assay for NK-3 functional activity (senktide-induced calcium mobilization, FLIPR)
Format: cell-based
Settings: compared with the other diastereomer (sulfur center) separated by chiral SFC
Text: A human NK-3 receptor gene was cloned using methods similar to those described for other human NK receptors (Aharony et al., Mol. Pharmacol. 45:9-19, 1994; Caccese et al., Neuropeptides 33, 239-243, 1999). The DNA sequence of the cloned NK-3 receptor differed from the published sequence (Buell et al., FEBS Letts. 299, 90-95, 1992; Huang et al., Biochem. Biophys. Res. Commun 184,966-972, 1992) having a silent single T>C base change at nucleotide 1320 of the coding sequence. Since the change is silent, the cloned gene provides a primary amino acid sequence for the encoded NK-3 receptor protein identical to the published sequence. […]
Generally, NK-3 functional activity may be assessed by using calcium mobilization assays in stable NK-3r-expressing cell lines. […] Agonists may be added to the cells and fluorescence responses continuously recorded for up to 5 min. […] The action of agonists may be assessed by observing their intrinsic activity in such a system.
NK-3 receptor expressing CHO cells were maintained in growth media (Ham's F12 medium, 10% FBS, 2 mM L-glutamine, and […] Hygromycin B). […] To quantify NK-3 receptor-induced calcium mobilization, cells were first washed with assay buffer consisting of Hanks' Balanced Salt Solution, 15 mM HEPES, and 2.5 mM probenecid, pH 7.4. […] The resulting data was analyzed using XLfit software (IDBS manufacturer) to determine EC50 and IC50 values.

CC[C@H](NC(=O)c1c([S+](C)[O-])c(-c2ccccc2)nc2ccccc12)c1ccccc1 (single isomer, unassigned) [Example 2 first eluting compound]
biological activity when tested in the assay for NK-3 functional activity: substantially greater biological activity

C[S+]([O-])c1c(-c2ccccc2)nc2ccccc2c1C(=O)N[C@H](c1ccccc1)C1CC1 (single isomer, unassigned) [Example 8 second eluting compound]
biological activity when tested in the assay for NK-3 functional activity: substantially greater biological activity
